Results taken from patent EP4624470A1, “YOHIMBINE DERIVATIVE, AND PREPARATION METHOD THEREFOR AND PHARMACEUTICAL COMPOSITION AND USE THEREOF” (Shanghai Institute of Materia Medica, Chinese Academy of …, priority 2022, dated 2024).

test system: not listed separately; experiment: Tissue distribution test in mice; format: in vivo; conditions: gavage 10 mg/kg
Experimental: Mice were fasted for more than 12 h and had free access to water. Table 3 Experimental Scheme for tissue distribution of Compound C27 in mice
Mice were fasted for more than 12 h and had free access to water.
• (1) Tissue distribution test in mice: The animals in each group were anesthetized and killed 2 h after administration. The brain, pancreas, heart, liver, and kidney tissues were collected by dissection, washed with physiological saline, and stored in a -20 °C refrigerator for testing. At the same time, 0.3 mL of whole blood was collected and placed in an EDTA-K2 anticoagulant tube. The blood was separated by centrifugation at 11,000 rpm for 5 min and stored in a -20 °C refrigerator for testing.
The concentration of unchanged drug in plasma and tissues was determined.
(2) Tissue distribution test of compound C27 in mice: At corresponding time points (0.25, 2 and 8 h) after gavage administration, mice were bled to death through the abdominal aorta. Brain, heart, liver, lung, pancreas and kidney tissues were immediately collected by dissection, and part of the plasma was collected. The operation was carried out in an ice water bath.
Centrifugation conditions: 11000 rpm for 5 min to separate plasma (about 200 µL).

Structure (SMILES)	pancreatic distribution
NC(=O)c1ccc(Cc2noc([C@@H]3[C@H]4C[C@H]5c6[nH]c7ccccc7c6CCN5C[C@@H]4CC[C@@H]3O)n2)cc1 [Compound C27]	pancreatic distribution characteristics comparable to those of compound C19

same assay, conditions: gavage 10 mg/kg, compared with yohimbine

Structure (SMILES)	plasma exposure
NC(=O)c1ccc(Cc2noc([C@@H]3[C@H]4C[C@H]5c6[nH]c7ccccc7c6CCN5C[C@@H]4CC[C@@H]3O)n2)cc1 [Compound C27]	equivalent to that of yohimbine

same assay, conditions: gavage 10 mg/kg, relative ratio of tissue distribution concentration to blood concentration

Structure (SMILES)	brain tissue distribution compared with yohimbine	brain tissue distribution, times lower than that of yohimbine
O[C@H]1CC[C@H]2CN3CCc4c([nH]c5ccccc45)[C@@H]3C[C@@H]2[C@H]1c1nc(Cc2ccccc2)no1 [Compound C1]	lower brain tissue distribution than yohimbine	
COc1ccc(Cc2noc([C@@H]3[C@H]4C[C@H]5c6[nH]c7ccccc7c6CCN5C[C@@H]4CC[C@@H]3O)n2)cc1 [Compound C6]	lower brain tissue distribution than yohimbine	
O[C@H]1CC[C@H]2CN3CCc4c([nH]c5ccccc45)[C@@H]3C[C@@H]2[C@H]1c1nc(Cc2ccc(Cl)c(Cl)c2)no1 [Compound C13]	lower brain tissue distribution than yohimbine	
NC(=O)c1ccc(Cc2noc([C@@H]3[C@H]4C[C@H]5c6[nH]c7ccccc7c6CCN5C[C@@H]4CC[C@@H]3O)n2)cc1 [Compound C27]	lower brain tissue distribution than yohimbine	about two hundred and seventy times lower

molecular target: T1, α2A-AR (Homo sapiens, UniProt P08913); experiment: α2A-AR antagonist assay (calcium flux, Fluo-4, FlexStation II); format: cell-based; conditions: antagonistic activity against agonist UK14304 in cells stably expressing α2A-AR/Ga16
T1 construct: expressed in transfected cells; stably expressing α2A-AR/Gα16
T1 sequence (P08913 1-465): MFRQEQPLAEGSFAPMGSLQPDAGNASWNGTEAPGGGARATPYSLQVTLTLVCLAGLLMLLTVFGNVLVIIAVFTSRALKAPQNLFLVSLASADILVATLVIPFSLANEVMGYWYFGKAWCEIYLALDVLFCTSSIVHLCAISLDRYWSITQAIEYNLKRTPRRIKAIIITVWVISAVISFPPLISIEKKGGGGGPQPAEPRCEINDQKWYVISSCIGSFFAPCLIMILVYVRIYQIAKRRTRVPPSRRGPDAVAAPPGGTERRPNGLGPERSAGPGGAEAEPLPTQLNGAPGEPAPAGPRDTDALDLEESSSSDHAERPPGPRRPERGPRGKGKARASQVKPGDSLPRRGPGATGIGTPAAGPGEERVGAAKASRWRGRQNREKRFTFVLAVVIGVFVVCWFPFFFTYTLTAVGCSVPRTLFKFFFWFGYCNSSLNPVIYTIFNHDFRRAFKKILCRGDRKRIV
Excerpt: By establishing a cell line co-transfected with the target receptor and Ga16, the receptor can be activated to cause the activation of Gα16 protein, which in turn activates phospholipase C (PLC) to produce IP3 and DAG. IP3 can bind to the IP3 receptors on the endoplasmic reticulum and mitochondria in the cell, thereby causing the release of intracellular calcium. Therefore, measuring the changes in intracellular calcium can be used as a method to detect the activation state of the target receptor. Fluo-4/AM is a calcium fluorescent probe indicator used to measure calcium ions. As a non-polar lipid-soluble compound, after entering the cell, the AM group dissociates under the action of cell lipases and releases Fluo-4; since Fluo-4 is a polar molecule that is not easy to pass through the lipid bilayer membrane, it can keep in the cell for a long time. Finally, the level of Ga protein activation can be reflected by measuring the excited fluorescence intensity.
Before the test, the test compound was dissolved in DMSO to prepare a stock solution, which was diluted with culture medium to the required concentration when used.

Structure (SMILES)	IC50 [µM]
O[C@H]1CC[C@H]2CN3CCc4c([nH]c5ccccc45)[C@@H]3C[C@@H]2[C@H]1c1nc(Cc2ccccc2)no1 [Compound C1]	< 0.1
CC(c1ccccc1)c1noc([C@@H]2[C@H]3C[C@H]4c5[nH]c6ccccc6c5CCN4C[C@@H]3CC[C@@H]2O)n1 (some centres unmarked) [Compound C2]	0.3 to 0.5
O[C@H]1CC[C@H]2CN3CCc4c([nH]c5ccccc45)[C@@H]3C[C@@H]2[C@H]1c1nc(CCc2ccccc2)no1 [Compound C3]	0.1 to 0.3
COc1ccccc1Cc1noc([C@@H]2[C@H]3C[C@H]4c5[nH]c6ccccc6c5CCN4C[C@@H]3CC[C@@H]2O)n1 [Compound C4]	0.5 to 2
COc1cccc(Cc2noc([C@@H]3[C@H]4C[C@H]5c6[nH]c7ccccc7c6CCN5C[C@@H]4CC[C@@H]3O)n2)c1 [Compound C5]	0.1 to 0.3
COc1ccc(Cc2noc([C@@H]3[C@H]4C[C@H]5c6[nH]c7ccccc7c6CCN5C[C@@H]4CC[C@@H]3O)n2)cc1 [Compound C6]	< 0.1
O[C@H]1CC[C@H]2CN3CCc4c([nH]c5ccccc45)[C@@H]3C[C@@H]2[C@H]1c1nc(Cc2ccccc2F)no1 [Compound C7]	0.5 to 2
O[C@H]1CC[C@H]2CN3CCc4c([nH]c5ccccc45)[C@@H]3C[C@@H]2[C@H]1c1nc(Cc2cccc(F)c2)no1 [Compound C8]	0.3 to 0.5
O[C@H]1CC[C@H]2CN3CCc4c([nH]c5ccccc45)[C@@H]3C[C@@H]2[C@H]1c1nc(Cc2ccc(F)cc2)no1 [Compound C9]	0.5 to 2
O[C@H]1CC[C@H]2CN3CCc4c([nH]c5ccccc45)[C@@H]3C[C@@H]2[C@H]1c1nc(Cc2ccccc2Cl)no1 [Compound C10]	0.5 to 2
O[C@H]1CC[C@H]2CN3CCc4c([nH]c5ccccc45)[C@@H]3C[C@@H]2[C@H]1c1nc(Cc2cccc(Cl)c2)no1 [Compound C11]	0.5 to 2
O[C@H]1CC[C@H]2CN3CCc4c([nH]c5ccccc45)[C@@H]3C[C@@H]2[C@H]1c1nc(Cc2c(Cl)cccc2Cl)no1 [Compound C12]	0.1 to 0.3
O[C@H]1CC[C@H]2CN3CCc4c([nH]c5ccccc45)[C@@H]3C[C@@H]2[C@H]1c1nc(Cc2ccc(Cl)c(Cl)c2)no1 [Compound C13]	0.5 to 2
O[C@H]1CC[C@H]2CN3CCc4c([nH]c5ccccc45)[C@@H]3C[C@@H]2[C@H]1c1nc(Cc2ccccc2Br)no1 [Compound C14]	< 0.1
O[C@H]1CC[C@H]2CN3CCc4c([nH]c5ccccc45)[C@@H]3C[C@@H]2[C@H]1c1nc(Cc2cccc(Br)c2)no1 [Compound C15]	< 0.1
O[C@H]1CC[C@H]2CN3CCc4c([nH]c5ccccc45)[C@@H]3C[C@@H]2[C@H]1c1nc(Cc2ccc(Br)cc2)no1 [Compound C16]	0.5 to 2
N#Cc1ccccc1Cc1noc([C@@H]2[C@H]3C[C@H]4c5[nH]c6ccccc6c5CCN4C[C@@H]3CC[C@@H]2O)n1 [Compound C17]	0.1 to 0.3

Structure (SMILES)	IC50 [µM]
N#Cc1cccc(Cc2noc([C@@H]3[C@H]4C[C@H]5c6[nH]c7ccccc7c6CCN5C[C@@H]4CC[C@@H]3O)n2)c1 [Compound C18]	< 0.1
O[C@H]1CC[C@H]2CN3CCc4c([nH]c5ccccc45)[C@@H]3C[C@@H]2[C@H]1c1nc(CN2CCOCC2)no1 [Compound C20]	0.1 to 0.3
O[C@H]1CC[C@H]2CN3CCc4c([nH]c5ccccc45)[C@@H]3C[C@@H]2[C@H]1c1nc(CC2CC2)no1 [Compound C21]	0.5 to 2
COCc1noc([C@@H]2[C@H]3C[C@H]4c5[nH]c6ccccc6c5CCN4C[C@@H]3CC[C@@H]2O)n1 [Compound C22]	0.1 to 0.3
O[C@H]1CC[C@H]2CN3CCc4c([nH]c5ccccc45)[C@@H]3C[C@@H]2[C@H]1c1nc(-c2ccccc2)no1 [Compound C23]	0.3 to 0.5
O[C@H]1CC[C@H]2CN3CCc4c([nH]c5ccccc45)[C@@H]3C[C@@H]2[C@H]1c1nc(-c2ccncc2)no1 [Compound C24]	0.5 to 2
O[C@H]1CC[C@H]2CN3CCc4c([nH]c5ccccc45)[C@@H]3C[C@@H]2[C@H]1c1nc(C2CCCCC2)no1 [Compound C25]	0.3 to 0.5
Cc1noc([C@@H]2[C@H]3C[C@H]4c5[nH]c6ccccc6c5CCN4C[C@@H]3CC[C@@H]2O)n1 [Compound C26]	0.1 to 0.3
NC(=O)c1ccc(Cc2noc([C@@H]3[C@H]4C[C@H]5c6[nH]c7ccccc7c6CCN5C[C@@H]4CC[C@@H]3O)n2)cc1 [Compound C27]	< 0.1
CN(C)S(=O)(=O)c1ccc(Cc2noc([C@@H]3[C@H]4C[C@H]5c6[nH]c7ccccc7c6CCN5C[C@@H]4CC[C@@H]3O)n2)cc1 [Compound C28]	< 0.1
COC(=O)c1ccc(Cc2noc([C@@H]3[C@H]4C[C@H]5c6[nH]c7ccccc7c6CCN5C[C@@H]4CC[C@@H]3O)n2)cc1 [Compound C29]	0.1 to 0.3
O=C(O)c1ccc(Cc2noc([C@@H]3[C@H]4C[C@H]5c6[nH]c7ccccc7c6CCN5C[C@@H]4CC[C@@H]3O)n2)cc1 [Compound C30]	0.3 to 0.5
O[C@H]1CC[C@H]2CN3CCc4c([nH]c5ccccc45)[C@@H]3C[C@@H]2[C@H]1c1nc(Cc2nc3ccccc3o2)no1 [Compound C31]	0.3 to 0.5
O[C@H]1CC[C@H]2CN3CCc4c([nH]c5ccccc45)[C@@H]3C[C@@H]2[C@H]1c1nc(Cc2cccc(OC(F)(F)F)c2)no1 [Compound C32]	< 0.1
O[C@H]1CC[C@H]2CN3CCc4c([nH]c5ccccc45)[C@@H]3C[C@@H]2[C@H]1c1nc(Cc2cccc(C(F)(F)F)c2)no1 [Compound C33]	0.1 to 0.3
CN(C)c1cccc(Cc2noc([C@@H]3[C@H]4C[C@H]5c6[nH]c7ccccc7c6CCN5C[C@@H]4CC[C@@H]3O)n2)c1 [Compound C34]	0.1 to 0.3
CN(C)C(=O)c1ccc(Cc2noc([C@@H]3[C@H]4C[C@H]5c6[nH]c7ccccc7c6CCN5C[C@@H]4CC[C@@H]3O)n2)cc1 [Compound C35]	0.1 to 0.3
